Consider 19 compounds from patent publication US11987588B2, “Modulators of the beta-3 adrenergic receptor useful for the treatment or prevention of heart failure and disorders related thereto” (Arena Pharmaceuticals, Inc., priority 2017, dated 2024).

This assay deals with Beta-3 Adrenergic Receptor (Homo sapiens (Human), UniProt P13945). The assay is described as follows: Homogeneous Time-Resolved Fluorescence (HTRF) cAMP antagonist assay, IC50 determination. In kind it is cell-based. The following applies: CHO-K1 cells stably expressing recombinant receptor, isoproterenol at EC90. The procedure, abridged:
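CHO-K1 cells stably expressing the recombinant receptor were preincubated with compound (10-point, 5-fold dilutions; top final typically 10 or 100 μM) in PBS with 1 mM IBMX, then stimulated with isoproterenol at its EC90 for 1 h at room temperature. cAMP was read by HTRF against an on-plate standard curve.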

Beta-3 Adrenergic Receptor, sequence (P13945 whole entry, species assumed): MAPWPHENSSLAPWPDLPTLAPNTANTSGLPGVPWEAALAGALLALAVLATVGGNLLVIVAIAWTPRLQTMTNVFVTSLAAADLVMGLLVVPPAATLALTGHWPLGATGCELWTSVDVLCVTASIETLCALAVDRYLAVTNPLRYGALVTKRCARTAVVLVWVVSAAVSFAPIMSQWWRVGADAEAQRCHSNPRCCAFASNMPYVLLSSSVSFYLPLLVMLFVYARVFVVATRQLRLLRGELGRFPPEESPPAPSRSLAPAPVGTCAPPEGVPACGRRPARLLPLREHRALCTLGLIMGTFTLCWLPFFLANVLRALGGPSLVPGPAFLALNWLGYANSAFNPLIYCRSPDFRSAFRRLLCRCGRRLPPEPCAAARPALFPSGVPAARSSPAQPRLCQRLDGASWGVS

On to `CC(O)CNS(=O)(=O)c1cccc(OC[C@@H](O)CNC2COC3(CCN(S(=O)(=O)c4ccc5ccccc5c4)CC3)C2)c1` (stereo partly drawn) [Compound 46, 3-((2S)-2-hydroxy-3-(8-(naphthalen-2-ylsulfonyl)-1-oxa-8-azaspiro[4.5]decan-3-ylamino)propoxy)-N-(2-hydroxypropyl)benzenesulfonamide], for which the IC50 is 54.1 nM.

As to `CCCn1cc(S(=O)(=O)N2CCC3(CC2)C[C@@H](NC[C@H](O)COc2cccc(S(N)(=O)=O)c2)CO3)c(=O)c2ccccc21` [Compound 551, 3-((S)-2-hydroxy-3-((R)-8-(4-oxo-1-propyl-1,4-dihydroquinolin-3-ylsulfonyl)-1-oxa-8-azaspiro[4.5]decan-3-ylamino)propoxy)benzenesulfonamide], the IC50 stood at 74.7 nM.

As to `CN(C)S(=O)(=O)c1cccc(OC[C@@H](O)CNC2COC3(CCN(S(=O)(=O)c4cccc(-c5ccc(S(N)(=O)=O)cc5)c4)CC3)C2)c1` (stereo partly drawn) [Compound 274, 3′-(3-((S)-3-(3-(N,N-dimethylsulfamoyl)phenoxy)-2-hydroxypropylamino)-1-oxa-8-azaspiro[4.5]decan-8-ylsulfonyl)biphenyl-4-sulfonamide], the IC50 worked out at 21.1 nM.

As to `CCn1cnc2cc(S(=O)(=O)N3CCC4(CC3)C[C@@H](NC[C@H](O)COc3cccc(S(=O)(=O)NC)c3)CO4)cnc21` [Compound 511, 3-((S)-3-((R)-8-(3-ethyl-3H-imidazo[4,5-b]pyridin-6-ylsulfonyl)-1-oxa-8-azaspiro[4.5]decan-3-ylamino)-2-hydroxypropoxy)-N-methylbenzenesulfonamide], the concentration for half-maximal inhibition (IC50) came to 20.4 nM.

Consider `COCCCNS(=O)(=O)c1cccc(OC[C@@H](O)CNC2COC3(CCN(S(=O)(=O)c4ccc5ccccc5c4)CC3)C2)c1` (stereo partly drawn) [Compound 75, 3-((2S)-2-hydroxy-3-(8-(naphthalen-2-ylsulfonyl)-1-oxa-8-azaspiro[4.5]decan-3-ylamino)propoxy)-N-(3-methoxypropyl)benzenesulfonamide], for which the half-maximal inhibitory concentration (IC50) was determined as 39.8 nM.

In the case of `CNS(=O)(=O)c1cccc(OC[C@@H](O)CNC2COC3(CCN(S(=O)(=O)c4cccc(Oc5ccccc5)c4)CC3)C2)c1` (stereo partly drawn) [Compound 124, 3-((2S)-2-hydroxy-3-(8-(3-phenoxyphenylsulfonyl)-1-oxa-8-azaspiro[4.5]decan-3-ylamino)propoxy)-N-methylbenzenesulfonamide], the concentration for half-maximal inhibition (IC50) worked out at 36.2 nM.

As for `CNS(=O)(=O)c1cccc(OC[C@@H](O)CN[C@@H]2COC3(CCN(S(=O)(=O)c4ccc(Br)c(C)c4)CC3)C2)c1` [Compound 270, 3-((S)-3-((S)-8-(4-bromo-3-methylphenylsulfonyl)-1-oxa-8-azaspiro[4.5]decan-3-ylamino)-2-hydroxypropoxy)-N-methylbenzenesulfonamide], the concentration for half-maximal inhibition (IC50) was found to be 16.7 nM.

As to `CNS(=O)(=O)c1cccc(OC[C@@H](O)CNC2COC3(CCN(S(=O)(=O)c4cccc(-c5nn[nH]n5)c4)CC3)C2)c1` (stereo partly drawn) [Compound 409, 3-((2S)-3-(8-(3-(2H-tetrazol-5-yl)phenylsulfonyl)-1-oxa-8-azaspiro[4.5]decan-3-ylamino)-2-hydroxypropoxy)-N-methylbenzenesulfonamide], the half-inhibitory concentration (IC50) turned out to be 180 nM.

Regarding `CNS(=O)(=O)c1cccc(OC[C@@H](O)CN[C@H]2COC3(CCN(S(=O)(=O)c4cnc5c(c4)CNCC5)CC3)C2)c1` [Compound 484, 3-((S)-2-hydroxy-3-((R)-8-(5,6,7,8-tetrahydro-1,6-naphthyridin-3-ylsulfonyl)-1-oxa-8-azaspiro[4.5]decan-3-ylamino)propoxy)-N-methylbenzenesulfonamide], the IC50 was 278 nM.

`CCN1CCOc2ccc(S(=O)(=O)N3CCC4(CC3)C[C@H](NC[C@H](O)COc3cccc(S(=O)(=O)NC)c3)CO4)cc21` [Compound 350, 3-((S)-3-((S)-8-(4-ethyl-3,4-dihydro-2H-benzo[b][1,4]oxazin-6-ylsulfonyl)-1-oxa-8-azaspiro[4.5]decan-3-ylamino)-2-hydroxypropoxy)-N-methylbenzenesulfonamide]: the half-inhibitory concentration (IC50) turned out to be 21.8 nM.

Take `CNS(=O)(=O)c1cccc(OC[C@@H](O)CNC2COC3(CCN(S(=O)(=O)c4cccc(F)c4)CC3)C2)c1` (stereo partly drawn) [Compound 28, 3-((2S)-3-(8-(3-fluorophenylsulfonyl)-1-oxa-8-azaspiro[4.5]decan-3-ylamino)-2-hydroxypropoxy)-N-methylbenzenesulfonamide]: the IC50 came out at 16.2 nM.

Turning to `CNS(=O)(=O)c1cccc(OC[C@@H](O)CNC2COC3(CCN(S(=O)(=O)c4cccc(CN)c4)CC3)C2)c1` (stereo partly drawn) [Compound 389, 3-((2S)-3-(8-(3-(aminomethyl)phenylsulfonyl)-1-oxa-8-azaspiro[4.5]decan-3-ylamino)-2-hydroxypropoxy)-N-methylbenzenesulfonamide], the IC50 came to 475 nM.

As to `CNS(=O)(=O)c1cccc(OC[C@@H](O)CNC2COC3(CCN(S(=O)(=O)c4cccc(-c5cccc(S(C)(=O)=O)c5)c4)CC3)C2)c1` (stereo partly drawn) [Compound 71, 3-((2S)-2-hydroxy-3-(8-(3′-(methylsulfonyl)biphenyl-3-ylsulfonyl)-1-oxa-8-azaspiro[4.5]decan-3-ylamino)propoxy)-N-methylbenzenesulfonamide], the half-maximal inhibitory concentration (IC50) worked out at 31.2 nM.

As to `CNS(=O)(=O)c1cccc(OC[C@@H](O)CN[C@H]2COC3(CCN(S(=O)(=O)c4cnc5c(c4)ncn5C)CC3)C2)c1` [Compound 475, 3-((S)-2-hydroxy-3-((R)-8-(3-methyl-3H-imidazo[4,5-b]pyridin-6-ylsulfonyl)-1-oxa-8-azaspiro[4.5]decan-3-ylamino)propoxy)-N-methylbenzenesulfonamide], the IC50 stood at 33.2 nM.

For `O=S(=O)(NCCF)c1cccc(OC[C@@H](O)CN[C@H]2COC3(CCN(S(=O)(=O)c4cnc5ccccc5c4)CC3)C2)c1` [Compound 394, N-(2-fluoroethyl)-3-((S)-2-hydroxy-3-((R)-8-(quinolin-3-ylsulfonyl)-1-oxa-8-azaspiro[4.5]decan-3-ylamino)propoxy)benzenesulfonamide], the 50% inhibitory concentration (IC50) amounted to 46.9 nM.

As to `CCCNS(=O)(=O)c1cccc(OC[C@@H](O)CNC2COC3(CCN(S(=O)(=O)c4ccc5ccccc5c4)CC3)C2)c1` (stereo partly drawn) [Compound 2, 3-((2S)-2-hydroxy-3-(8-(naphthalen-2-ylsulfonyl)-1-oxa-8-azaspiro[4.5]decan-3-ylamino)propoxy)-N-propylbenzenesulfonamide], the IC50 is 21.1 nM.

On to `CNS(=O)(=O)c1cccc(OC[C@@H](O)CNC2COC3(CCN(S(=O)(=O)c4cccc5nsnc45)CC3)C2)c1` (stereo partly drawn) [Compound 128, 3-((2S)-3-(8-(benzo[c][1,2,5]thiadiazol-4-ylsulfonyl)-1-oxa-8-azaspiro[4.5]decan-3-ylamino)-2-hydroxypropoxy)-N-methylbenzenesulfonamide], for which the IC50 was 11.4 nM.

Turning to `CNS(=O)(=O)c1cccc(OC[C@@H](O)CN[C@@H]2COC3(CCN(S(=O)(=O)c4ccc5ccccc5c4)CC3)C2)c1` [Compound 29, 3—((S)-2-hydroxy-3-((S)-8-(naphthalen-2-ylsulfonyl)-1-oxa-8-azaspiro[4.5]decan-3-ylamino)propoxy)-N-methylbenzenesulfonamide], the IC50 amounted to 4.53 nM.

For `CN(C)CCCNS(=O)(=O)c1cccc(OC[C@@H](O)CNC2COC3(CCN(S(=O)(=O)c4ccc(-c5ccccc5)s4)CC3)C2)c1` (stereo partly drawn) [Compound 315, N-(3-(dimethylamino)propyl)-3-((2S)-2-hydroxy-3-(8-(5-phenylthiophen-2-ylsulfonyl)-1-oxa-8-azaspiro[4.5]decan-3-ylamino)propoxy)benzenesulfonamide], the IC50 came out at 1070 nM.
